Measured values from patent publication US20260294305A1, “METHOD FOR EX VIVO MEASURING GLOMERULAR FILTRATION RATE IN A SUBJECT” (Assistance Publique - Hôpitaux de Paris, priority 2023, published 2026).
Where “and” joins values, the source holds several entries; their conditions need not be identical. Equal values may be shown once.

How the values were obtained:
[1] = more specifically by glomerular filtration; cited from earlier work
[2] = GFR measurement with iohexol clearance, chronic kidney disease patients; format: in vivo; conditions: mean ± SD, 28 CKD patients
Description: After a 5 mL bolus injection of iohexol (300 mg/L Omnipaque®; GE Healthcare, France), and an equilibration period (time the tracer takes to distribute in the extracellular compartment), blood and urine samples were collected over four to six consecutive clearance periods. We performed six 30-min periods after a 90-min equilibration period until July 2019, then four 40-min periods after a 120-min equilibration. The concentrations of iohexol in serum and urine were determined by high-performance liquid chromatography (HPLC) as previously described (Cavalier E et al. ([12])). Measured GFR (mGFR) was the mean of the four to six clearance-period values calculated as follows: U×V/P, where U is the concentration of iohexol in the urine collected during the period, V is the urinary flow rate during the period, and P is the serum concentration of iohexol at mid period. […] If voiding was irregular or incomplete or in case of urine loss, mGFR was calculated with iohexol plasma clearance determined from the plasma disappearance curve, with Bröchner-Mortensen correction model for the missing early compartment (Bröchner-Mortensen J. A ([15])). […]
Iohexol clearance was measured as previously described in the example 1.

[3] = GFR measurement with iohexol clearance (mGFR), living kidney donor candidates; format: in vivo
Description: (§1) All living kidney donor candidates investigated in Nephrology Department between July 2016 and October 2022, were eligible for inclusion. In accordance with the KDIGO guidelines (Lentine K L et al. ([11])), GFR was measured in all these individuals from iohexol clearance. […] The CT urography had to include 4 polychromatic acquisition phases (unenhanced, arterial, nephrographic, and excretory phases) with a monophasic injection of iomeprol at 350 or 400 mg of iodine per milliliter (Iomeron® 350 or 400, Bracco Imaging, Milano, Italy).
After a 5 mL bolus injection of iohexol (300 mg/L Omnipaque®; GE Healthcare, France), and an equilibration period (time the tracer takes to distribute in the extracellular compartment), blood and urine samples were collected over four to six consecutive clearance periods. We performed six 30-min periods after a 90-min equilibration period until July 2019, then four 40-min periods after a 120-min equilibration. The concentrations of iohexol in serum and urine were determined by high-performance liquid chromatography (HPLC) as previously described (Cavalier E et al. ([12])). Measured GFR (mGFR) was the mean of the four to six clearance-period values calculated as follows: U×V/P, where U is the concentration of iohexol in the urine collected during the period, V is the urinary flow rate during the period, and P is the serum concentration of iohexol at mid period. Given the negative bias of this GFR measurement method (Seegmiller J C et al. ([13]), Stehlé T et al. ([14])), the following correction was used: mGFR=1.15×iohexol urinary clearance+1.3 (Stehlé T et al. ([14])). If voiding was irregular or incomplete or in case of urine loss, mGFR was calculated with iohexol plasma clearance determined from the plasma disappearance curve, with Bröchner-Mortensen correction model for the missing early compartment (Bröchner-Mortensen J. A ([15])).

[4] = after a bolus injection; cited from earlier work
plasma proteins = conditions: cited from earlier work
[5] = GFR measurement with iomeprol clearance assessed by CT urography (CT-mGFR), living kidney donor candidates; format: in vivo
Description: This is a cross-sectional study using data from kidney donor candidates who were screened in hospital between July 2016 and October 2022, with both GFR measurement by iohexol clearance, and kidney morphology assessment by CT urogaphy.
as §1
CT-mGFR was assessed by the same U×V/P calculation used to determine the urinary clearance of iohexol: the amount of iomeprol excreted through the urinary system during a given period of time was divided by the mean serum iomeprol concentration during the same period. The blood and urine concentration of iomeprol were assessed by attenuation measurement (Hounsfield Units, HU) in the different areas of interest. The time periods were derived from the acquisition time of the different phases. […] Manual segmentations of bladder, upper urinary tracts and kidneys were performed using the Advantage Windows software (Advantage Window v4.7; GE Healthcare, Buc, France), using different thresholds depending on the CT phase and then manually finalized. For non-contrast and portal venous phase: only a lower limit was set to 0 HU, in order to exclude fat pixels. For excretory phases: a specific threshold was adapted for each patient based on visual analysis in order to reduce extra-urinary pixels as much as possible. Also, the lower threshold used for upper excretory tract was used as the higher threshold for kidney segmentation to avoid overlap in segmentations. The urinary excretion rate of iomeprol between arterial and excretory phases (U×V, expressed as HU/min) was calculated from urinary excretion of iomeprol into the bladder (Uexcr-Bladder), urinary excretion of iomeprol into the upper excretory tract (calyces, pelvis, ureters) (Uexcr-tract), and urinary excretion of iomeprol into the kidney tubules (Uexcr-tubules): U×V=Uexcr-Bladder+Uexcr-tract+Uexcr-tubules. Uexcr-bladder was the volume of the bladder at the excretory phase (Bladder-Volume) multiplied by the mean CT-attenuation of the bladder at the excretory phase (HU-Bladder-excr) minus the CT-attenuation of the urine in bladder at the unenhanced phase (HU-Bladder-unenhanced), then divided by the time period between the excretory phase and the arterial phase (time period): Uexcr-Bladder=Bladder-volume×(HU-Bladder-excr−HU-Bladder-unenhanced)/time period. When the bladder was not included on the unenhanced phase, urine CT-attenuation could be measured on the nephrographic phase, the urine density at the nephrographic phase being slightly higher than at the unenhanced phase, but without clinical consequence on the CT-mGFR calculation. Uexcr-tract was determined in the same way by studying the upper excretory tract (calyces, pelvis, ureters) instead of the bladder. Uexcr-tubules was the volume of both kidneys (Kidney-volumes) multiplied by mean CT-attenuation of kidneys at the excretory phase (HU-Kidney-excr) minus mean CT-attenuation of kidneys at the unenhanced phase (HU-Kidney-unenhanced), then divided by time period: Uexcr-tubules=Kidney-volumes×(HU-Kidney-excr-HU-Kidney-unenhanced)/time period. The denominator of the U×V/P equation, was the calculated serum iomeprol concentration at the midpoint of the period between the arterial and excretory phases. At each phase, the difference between the CT attenuation of the aorta and the one at the unenhanced phase was the surrogate for the serum iomeprol concentration. […]

[6] = cited from earlier work

CN(CC(O)CO)C(=O)c1c(I)c(NC(=O)C(CO)CO)c(I)c(C(=O)N(C)CC(O)CO)c1I (stereo not shown) [iobitridol]
Route of elimination [1]: eliminated almost exclusively by the urinary excretion

CC(=O)N(CC(O)CN(C(C)=O)c1c(I)c(C(=O)NCC(O)CO)c(I)c(C(=O)NCC(O)CO)c1I)c1c(I)c(C(=O)NCC(O)CO)c(I)c(C(=O)NCC(O)CO)c1I (stereo not shown) [iodixanol]
Route of elimination [1]: eliminated almost exclusively by the urinary excretion

CC(=O)N(CC(O)CO)c1c(I)c(C(=O)NCC(O)CO)c(I)c(C(=O)NCC(O)CO)c1I (stereo not shown) [iohexol]
Iohexol clearance-measured GFR [2]: 46.0 mL/min/1.73 m2 and 46.0 ± 15.8 mL/min/1.73 m2 | mGFR (iohexol clearance), maximum ([3]; max): 140.2 ml/min/1.73 m^2 | mGFR (iohexol clearance) ([3]; mean ± SD, mGFR=1.15×iohexol urinary clearance+1.3): 99.7±19.1 ml/min/1.73 m^2 | mGFR (iohexol clearance), minimum ([3]; min): 59.9 ml/min/1.73 m^2 | mGFR, ml/min, mean ± SD ([3]; study population, Table 1): 99.7 ± 19.1 mL/min

CN(C(=O)CO)c1c(I)c(C(=O)NCC(O)CO)c(I)c(C(=O)NCC(O)CO)c1I (stereo not shown) [iomeprol]
Correlation between its clearance and that of inulin [4]: very good correlation | Extra-renal clearance [4]: negligible | Plasma concentration decline [4]: declined biexponentially | Plasma protein binding (plasma proteins): does not bind measurably to plasma proteins | Serum iomeprol concentrations assessed at the arterial phase ([5]; example patient, 0 min, aorta attenuation minus unenhanced): 210.2 HU | Serum iomeprol concentrations assessed at the nephrographic phase ([5]; example patient, 0.77 min, aorta attenuation minus unenhanced): 88.3 HU | Serum iomeprol concentrations assessed at the excretory phase ([5]; example patient, 9.47 min, aorta attenuation minus unenhanced): 46.8 HU | Ln (iomeprol mid-period) ([5]; example patient, mid-period between arterial and excretory phases): 4.396 | CT-mGFR, maximum ([5]; max): 174.0 ml/min/1.73 m^2 | Mean CT-mGFR (iomeprol clearance assessed by CT urography) ([5]; mean ± SD, n=75 living kidney donor candidates): 100.9±19.5 ml/min/1.73 m^2 | CT-mGFR, minimum ([5]; min): 60.8 ml/min/1.73 m^2 | Water solubility [6]: hydrosoluble
